Laboratory results as given in US7279161B2, “Factor IX/factor IXa activating antibodies and antibody derivatives” (Baxter Aktiengesellschaft, priority 1999, dated 2007).
Entries after “also recorded” stand apart in the source; their conditions may differ.

Assays:
human FIXa = target: T1, human FIXa (Homo sapiens, UniProt P00740); assay: Chromogenic FVIII-like (FXa generation) assay with human FIXa added; format: biochemical
T1 construct: with (+) and without (−) addition of 50 ng human FIXaβ; purchased ERL (Enzyme Research Laboratories)
T1 sequence (P00740 47-191 limits assumed): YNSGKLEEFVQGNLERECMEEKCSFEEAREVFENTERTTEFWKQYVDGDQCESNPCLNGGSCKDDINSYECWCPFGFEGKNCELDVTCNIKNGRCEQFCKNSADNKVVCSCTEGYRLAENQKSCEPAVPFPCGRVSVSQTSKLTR
T1 sequence (P00740 227-461 limits assumed): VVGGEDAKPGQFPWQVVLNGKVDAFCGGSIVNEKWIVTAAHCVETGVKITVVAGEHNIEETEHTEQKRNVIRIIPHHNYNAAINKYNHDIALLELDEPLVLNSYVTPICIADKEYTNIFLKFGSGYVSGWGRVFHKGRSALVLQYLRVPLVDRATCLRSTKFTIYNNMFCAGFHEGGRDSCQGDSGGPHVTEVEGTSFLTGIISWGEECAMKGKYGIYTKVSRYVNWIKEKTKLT
Procedure: The chromogenic activity of these antibody preparations was measured in the following FXa generation kinetic assay: 10 μg of monoclonal antibody (in 25 μl) were transferred to microtiter plate wells and warmed to 37° C. Chromogenic substrate (S-2222), synthetic thrombin inhibitor (I-2581), factor IXa and FX were reconstituted in sterile water and FIXa/FX (both bovine) were mixed with phospholipids according to the supplier's protocol. Per reaction, 50 μl of the phospholipid/FIXa/FX solution were combined with 25 μl CaCl2 (25 mM) and 50 μl of the substrate/inhibitor cocktail. To start the reaction, 125 μl of the premix were added to the monoclonal antibody solution in the microtiter plates and incubated at 37° C. Absorbance at 405 nm and 490 nm of the samples was read at various times (5 min to 2 h) against a reagent blank ([…] TBS instead of monoclonal antibodies) in a Labsystems iEMS Reader MF™ microtiter plate reader using GENESIS™ software. In parallel, the same reactions were performed except that 50 ng human FIXa were added per reaction.
To analyze the FVIII-like (FIXa activating) activity of the peptides, an assay system based on a commercial available FVIII assay was developed (see examples 2 and 4). The basic principle is, that without a cofactor, FIXa will have very limited activity towards its natural substrate FX. […] The amount of FXa generated is monitored by cleavage of a chromogenic substrate. The principle of the revised chromogenic assay is described for two representative peptides: A1/3 and A1/5 (Table 2). Briefly, 25 μl aliquots of peptide stock solution (in imidazole buffer (IZ) 50 mM imidazole, 100 mM NaCl, pH 7.2) were transferred to microtiter plate wells and warmed to 37° C. Chromogenic FXa substrate (S-2222), synthetic thrombin inhibitor (I-2581), bovine FIXa and bovine FX were reconstituted in sterile water and FIXa/FX mixed with phospholipids according to the supplier's protocol. […] Per reaction, 50 μl of the phospholipid/FIXa/FX solution were combined with 25 μl CaCl2 (25 mM) and 50 μl of the substrate/inhibitor cocktail. To start the reaction, 125 μl of the premix were added to the peptide solution in the microtiter plate and incubated at 37° C. Absorbance at 405 nm and 490 nm of the samples was read at various times (5 min to 2 h) against a reagent blank in a Labsystems iEMS Reader MF™ microtiter plate reader using GENESIS™ software.

FVIII deficient plasma = assay: aPTT based one stage clotting assay in FVIII deficient plasma; format: biochemical, human
Procedure: During normal hemostasis, FIX becomes initially activated either by the tissue factor (TF)/factor VIIa pathway or later on by activated factor XI (FXIa). Subsequent to its activation, FIXa associates on the platelet surface in a membrane bound complex with activated FVIII. […] Different amounts of antibody 193/AD3 or mouse IgG (as a control) were used in a standard aPTT based one stage clotting assay. Briefly, 100 μl of antibody-containing samples were incubated with 100 μl of FVIII deficient plasma (DP) and with 100 μl of DAPTTIN (PTT Reagent for determining activated Thromboplastin Time; IMMUNO AG) reagent, in a KC10A clotting analyzer. Where indicated, a total amount of 50 ng activated FIX was included in the reaction mixture. After a 4 minute incubation, the reaction was started by the addition of 100 μl CaCl2 (25 mM).
The peptides were also analyzed for their potential to reduce the clotting time in a FVIII deficient plasma. The aPTT based one stage clotting assay was essentially done as described (see example 6). Clotting times (time from starting the reaction to the “clot”-formation were compared either against FVIII, a buffer control (IZ) or a control peptide (scrambled version). The results of two typical clotting experiments done with two different aPTT reagents (DAPTTIN and Pathromtin SL) are shown in table 3A and table 3B.

For EEEEGGGFTVNWYFDEEE [B1/6], the “FIXa activating activity in chromogenic assay” value (human FIXa; data not shown) was “no activity”, the clotting time (FVIII deficient plasma; 12.5 nM peptide, (+) presence of activated human FIX) was 100 s and the clotting time (FVIII deficient plasma; 12.5 nM peptide, (−) absence of activated human FIX) was 111 s. It also gave a clotting time (FVIII deficient plasma; 0.125 μM peptide, (+) presence of activated human FIX) of 101 s, a clotting time (FVIII deficient plasma; 0.125 μM peptide, (−) absence of activated human FIX) of 111 s and a clotting time (FVIII deficient plasma; 1.25 μM peptide, (+) presence of activated human FIX) of 100 s. For the same molecule, the clotting time (FVIII deficient plasma; 1.25 μM peptide, (−) absence of activated human FIX) was 110 s, the clotting time (FVIII deficient plasma; 12.5 μM peptide, (+) presence of activated human FIX) was 103 s and the clotting time (FVIII deficient plasma; 12.5 μM peptide, (−) absence of activated human FIX) was 115 s.

EEEEGGGYYVNWYFDEEE [A1/2] was tested, and the “chromogenic FVIII-like activity (FXa generation)” value (“chromogenic FVIII-like activity” for short) (human FIXa; 2.9 nM human FIXa) was “did not give any significant chromogenic activity”.

With EYGEGYGEVNEYDEFEWE [A1/4] the “chromogenic FVIII-like activity” value (human FIXa; 2.9 nM human FIXa) was “did not give any significant chromogenic activity”.

For FGVGYRGETRNFDW [B1/5], the “FIXa activating activity in chromogenic assay” value (human FIXa; data not shown) was “no activity”.

In the case of REGGGFTVNWYFDR [B1/4], the chromogenic activity (human FIXa; chromogenic FVIII assay, data not shown) is reported as “some chromogenic activity”.

Molecule RdRdRdGEYGVYWNGDFYRdRdRd [A1/3-Rd-srmb] has an average clotting time (FVIII deficient plasma; Table 4, 1.25 μM, 2.2 nM FIXa) of 103 s, a clotting time (FVIII deficient plasma; Table 4, 1.25 μM, 2.2 nM FIXa, duplicate 1) of 101.1 s and a clotting time (FVIII deficient plasma; Table 4, 1.25 μM, 2.2 nM FIXa, duplicate 2) of 105.3 s. The average clotting time (FVIII deficient plasma; Table 4, 1.25 μM, w/o FIXa) was 107 s, the clotting time (FVIII deficient plasma; Table 4, 1.25 μM, w/o FIXa, duplicate 1) was 107.2 s and the clotting time (FVIII deficient plasma; Table 4, 1.25 μM, w/o FIXa, duplicate 2) was 107.1 s. The average clotting time (FVIII deficient plasma; Table 4, 2.5 μM, 2.2 nM FIXa) was 105 s, the clotting time (FVIII deficient plasma; Table 4, 2.5 μM, 2.2 nM FIXa, duplicate 1) was 105 s and the clotting time (FVIII deficient plasma; Table 4, 2.5 μM, 2.2 nM FIXa, duplicate 2) was 104.2 s. The average clotting time (FVIII deficient plasma; Table 4, 2.5 μM, w/o FIXa) was 112 s, the clotting time (FVIII deficient plasma; Table 4, 2.5 μM, w/o FIXa, duplicate 1) was 111.9 s and the clotting time (FVIII deficient plasma; Table 4, 2.5 μM, w/o FIXa, duplicate 2) was 111.9 s. It also gave an average clotting time (FVIII deficient plasma; Table 4, 5 μM, 2.2 nM FIXa) of 108 s, a clotting time (FVIII deficient plasma; Table 4, 5 μM, 2.2 nM FIXa, duplicate 1) of 108.5 s and a clotting time (FVIII deficient plasma; Table 4, 5 μM, 2.2 nM FIXa, duplicate 2) of 108.2 s. For the same molecule, the average clotting time (FVIII deficient plasma; Table 4, 5 μM, w/o FIXa) was 113 s, the clotting time (FVIII deficient plasma; Table 4, 5 μM, w/o FIXa, duplicate 1) was 113.1 s and the clotting time (FVIII deficient plasma; Table 4, 5 μM, w/o FIXa, duplicate 2) was 112.4 s. For the same molecule, the average clotting time (FVIII deficient plasma; Table 4, 7.5 μM, 2.2 nM FIXa) was 107 s, the clotting time (FVIII deficient plasma; Table 4, 7.5 μM, 2.2 nM FIXa, duplicate 1) was 107.6 s and the clotting time (FVIII deficient plasma; Table 4, 7.5 μM, 2.2 nM FIXa, duplicate 2) was 106.6 s. It also gave an average clotting time (FVIII deficient plasma; Table 4, 7.5 μM, w/o FIXa) of 114 s, a clotting time (FVIII deficient plasma; Table 4, 7.5 μM, w/o FIXa, duplicate 1) of 114.6 s and a clotting time (FVIII deficient plasma; Table 4, 7.5 μM, w/o FIXa, duplicate 2) of 113.6 s. For the same molecule, the average clotting time (FVIII deficient plasma; Table 4, 10 μM, 2.2 nM FIXa) was 108 s, the clotting time (FVIII deficient plasma; Table 4, 10 μM, 2.2 nM FIXa, duplicate 1) was 107.2 s and the clotting time (FVIII deficient plasma; Table 4, 10 μM, 2.2 nM FIXa, duplicate 2) was 107.8 s. For the same molecule, the average clotting time (FVIII deficient plasma; Table 4, 10 μM, w/o FIXa) was 116 s, the clotting time (FVIII deficient plasma; Table 4, 10 μM, w/o FIXa, duplicate 1) was 115.8 s and the clotting time (FVIII deficient plasma; Table 4, 10 μM, w/o FIXa, duplicate 2) was 115.3 s. For the same molecule, the average clotting time (FVIII deficient plasma; Table 4, 12.5 μM, 2.2 nM FIXa) was 108 s, the clotting time (FVIII deficient plasma; Table 4, 12.5 μM, 2.2 nM FIXa, duplicate 1) was 108.1 s and the clotting time (FVIII deficient plasma; Table 4, 12.5 μM, 2.2 nM FIXa, duplicate 2) was 107.8 s. It also gave an average clotting time (FVIII deficient plasma; Table 4, 12.5 μM, w/o FIXa) of 118 s, a clotting time (FVIII deficient plasma; Table 4, 12.5 μM, w/o FIXa, duplicate 1) of 117.2 s and a clotting time (FVIII deficient plasma; Table 4, 12.5 μM, w/o FIXa, duplicate 2) of 118 s. It also gave an average clotting time (FVIII deficient plasma; Table 4, 15 μM, 2.2 nM FIXa) of 113 s, a clotting time (FVIII deficient plasma; Table 4, 15 μM, 2.2 nM FIXa, duplicate 1) of 112.7 s and a clotting time (FVIII deficient plasma; Table 4, 15 μM, 2.2 nM FIXa, duplicate 2) of 112.4 s. It also gave an average clotting time (FVIII deficient plasma; Table 4, 15 μM, w/o FIXa) of 122 s, a clotting time (FVIII deficient plasma; Table 4, 15 μM, w/o FIXa, duplicate 1) of 121.9 s and a clotting time (FVIII deficient plasma; Table 4, 15 μM, w/o FIXa, duplicate 2) of 121.3 s.

With VRYRNRYRWGYRGRFGDE [A1/5] the “chromogenic FVIII-like activity” value (human FIXa; 2.9 nM human FIXa) was “inactive; also recorded: does not give rise to any FXa generation” and the chromogenic activity (human FIXa; 12 μM peptide, 2.3 nM human FIXa) was “no significant FXa generation”.

B1: 8860-M/H#4c: unrelated scFv of #8860 with c-myc-tag and His6-tag, negative control (protein)
scFv: EVQLQQSGPELVKPGASVKISCKASGYAFSSSWMNWVKQRPGQGLEWIGRIYPGNGDTNYNGKFKGKATLTADKSSSTAYMQLSSLTSVDSAVYFCADGNVYYYAMDYWGQGTSVTVSSGGGGSGGRASGGGGSQIVLTQSPASLAVSLGQRATISCRASKSVSTSGYSYMHWYQQKPGQPPKLLIYLASNLESGVPARFSGSGSGTDFTLNIHPVEEEDAATYYCQHSRELPRTFGGGTKLEIKRAAAEQKLISEEDLNGAAHHHHHH
For B1, the “chromogenic FVIII-like activity” value (human FIXa; 2.3 nM human FIXa) was “did not”.

B2: 198/A1 Fab fragment: Fab fragment of antibody 198/A1 made with papain, purified on protein L (antibody, V domains shown)
VH: EVQLQESGGGLVKPGGSLKLSCAASGFIFSSYTMSWVRQTPEKRLEWVATISSGGSSTYYPDSVKGRFTISRDNAKNTLYLQMSSLKSEDTAMYHCTREGGGYYVNWYFDVWGAGTTLTVSS
VL: DIELTQSPASLAVSLGQRATISCRASESVDSYGKSFMHWYQQKPGQPPKLLIYRASNLESGIPARFSGSGSRTDFTLTINPVEADDVATYYCQQSNEDPLTFGAGTRLEIKR
B2 was tested, and the “chromogenic FVIII-like activity” value (human FIXa; 2.3 nM human FIXa) was “still gives rise to FIX dependent FXa generation” and the “chromogenic activity compared to intact antibody” value (human FIXa; 2.3 nM human FIXa) was “somewhat less activity”.

B3: 198/B1: anti-FIX/FIXa monoclonal IgG, ECACC No. 99090925; 198/AB2 is an identical subclone (protein)
scFv: EVQLQESGGGLVKPGGSLKLSCAASGFTFSSYTMSWVRQTPEKRLEWVATISSGGSSTYYPDSVKGRFTISRDNAKNTLYLQMSSLRSEDTAMYYCTREGGGFTVNWYFDVWGAGTLVTVSAGGGGSGGRASGGGGSENVLTQSPASLAVSLGQRATISCRASESVDSYGYNFMHWYQQIPGQPPKLLIYRASNLESGIPARFSGSGSRTDFTLTINPVEADDVATYYCQQSNEDPLTFGTGTRLEIKR
modifications: scFv derived from IgG; Description of Artificial Sequence:scFv from hybridoma cell line 198/AB2 (subclone of 198/B1)
notes: anti-FIX/FIXa monoclonal IgG, ECACC No. 99090925; 198/AB2 is an identical subclone
With B3 the procoagulant activity (FVIII deficient plasma; one-stage clotting assay in the presence of FIXa) was “show procoagulant activity”.

B4: MycHis-198AB2#102: 198/B1 (subclone AB2) scFv fragment with c-myc-tag and His6-tag (protein)
scFv: B3 scFv
modifications: left off: small tags and cut ends
notes: 198/B1 (subclone AB2) scFv fragment with c-myc-tag and His6-tag
For B4, the “chromogenic FVIII-like activity” value (human FIXa; 2.3 nM human FIXa) was “gave rise to a substantial FXa generation”.
